This note sets out measurements from ChEMBL document CHEMBL3871304, “Novel benzothiazine-piperazine derivatives by peptide-coupling as potential anti-proliferative agents” (2017).

A value given as a limit tells only on which side of the number the result lay.

Common to all, as to format: functional
Assay [1] in a line: Growth inhibition of human HeLa cells after 48 hrs by SRB assay. For orientation: Sulforhodamine B stains cellular protein and so reports cell mass.
Assay [2] is described as follows: Growth inhibition of human MiaPaCa cells after 48 hrs by SRB assay. The conditions noted are these: MIA PaCa-2, 48 h.
A short description of assay [3]: Growth inhibition of human MDA-MB-231 cells after 48 hrs by SRB assay. The conditions noted are these: MDA-MB-231, 48 h.
Assay [4] is described as follows: Growth inhibition of human IMR32 cells after 48 hrs by SRB assay. The conditions noted are these: IMR-32, 48 h.

Regarding `CC(=O)O[C@H]1C(=O)[C@@]2(C)[C@H]([C@H](OC(=O)c3ccccc3)[C@]3(O)C[C@H](OC(=O)[C@H](O)[C@@H](NC(=O)c4ccccc4)c4ccccc4)C(C)=C1C3(C)C)[C@]1(OC(C)=O)CO[C@@H]1C[C@@H]2O` [PACLITAXEL], the GI50 in assay [1] (read-out: GI50) was 0.039 µM; in assay [1] (read-out: pGI50 (converted)), 0.0389 µM; in assay [2], 0.06 µM; in assay [3], 0.092 µM; in assay [4], 0.086 µM.

In the case of `O=C(CCN1C(=O)CSc2ccccc21)N1CCSCC1`, the GI50 in assay [1] (read-out: GI50) was 18.5 µM; in assay [1] (read-out: pGI50 (converted)), 18.6 µM; in assay [2], above 100 µM; in assay [3], 6 µM; in assay [4], 21.7 µM.

As to `O=C(CCN1C(=O)CSc2ccccc21)NCCCN1CCN(c2ccccc2F)CC1`, the GI50 in assay [1] (read-out: GI50) was 1.4 µM; in assay [1] (read-out: pGI50 (converted)), 1.41 µM; in assay [2], above 100 µM; in assay [3] it was 4.6 µM; in assay [4], 1.4 µM.

As to `COc1ccccc1N1CCN(CCCNC(=O)CCN2C(=O)CSc3ccccc32)CC1`, the GI50 was 0.97 µM in assay [1] (read-out: GI50); 0.977 µM in assay [1] (read-out: pGI50 (converted)); 59.2 µM in assay [2]; 2 µM in assay [3]; above 100 µM in assay [4].

As to `CC(C)(C)OC(=O)N1CCN(C(=O)CCN2C(=O)CSc3ccccc32)CC1`, the GI50 in assay [1] (read-out: GI50) is above 100 µM; in assay [1] (read-out: pGI50 (converted)), 100 µM; in assay [2], 51.5 µM; in assay [3] it was above 100 µM; in assay [4] it was above 100 µM.

On to `O=C(CCN1C(=O)CSc2ccccc21)NCCCN1CCN(c2ccc([N+](=O)[O-])cc2)CC1`, for which the GI50 in assay [1] (read-out: GI50) is above 100 µM; in assay [1] (read-out: pGI50 (converted)), 100 µM; in assay [2], above 100 µM; in assay [3] it was above 100 µM; in assay [4], 0.46 µM.

With `O=C(CCN1C(=O)CSc2ccccc21)N1CCN(c2ccccc2F)CC1`, the GI50 in assay [1] (read-out: GI50) is 61 µM; in assay [1] (read-out: pGI50 (converted)), 61.7 µM; in assay [2], above 100 µM; in assay [3], 1.6 µM; in assay [4], above 100 µM.

For the compound `O=C(CCN1C(=O)CSc2ccccc21)NCCCN1CCN(c2ccccc2)CC1`, the GI50 in assay [1] (read-out: GI50) was 2.17 µM; in assay [1] (read-out: pGI50 (converted)) it was 2.19 µM; in assay [2] it was above 100 µM; in assay [3], below 0.01 µM; in assay [4], above 100 µM.

Turning to `COc1cccc2c1C(=O)c1c(O)c3c(c(O)c1C2=O)C[C@@](O)(C(=O)CO)C[C@@H]3O[C@H]1C[C@H](N)[C@H](O)[C@H](C)O1` [DOXORUBICIN], the GI50 in assay [1] (read-out: GI50) was 0.083 µM; in assay [1] (read-out: pGI50 (converted)), 0.0832 µM; in assay [2], 0.095 µM; in assay [3] it was 0.073 µM; in assay [4] it was 0.025 µM.

In the case of `O=C(CCN1C(=O)CSc2ccccc21)N1CCN(c2ccc(C(F)(F)F)cc2)CC1`, the GI50 was 4.2 µM in assay [1] (read-out: GI50); 4.17 µM in assay [1] (read-out: pGI50 (converted)); above 100 µM in assay [2]; 1 µM in assay [3]; 46.4 µM in assay [4].

Consider `O=C(CCN1C(=O)CSc2ccccc21)NCCCN1CCN(c2ccc(C(F)(F)F)cc2)CC1`, for which the GI50 in assay [1] (read-out: GI50) was 5.7 µM; in assay [1] (read-out: pGI50 (converted)) it was 5.75 µM; in assay [2], above 100 µM; in assay [3] it was 20.4 µM; in assay [4], 1.4 µM.

Regarding `O=C(CCN1C(=O)CSc2ccccc21)N1CCN(c2ccc(F)cc2)CC1`, the GI50 in assay [1] (read-out: GI50) is 5.4 µM; in assay [1] (read-out: pGI50 (converted)), 5.37 µM; in assay [2], above 100 µM; in assay [3] it was 2.2 µM; in assay [4], 10 µM.

Take `O=C(CCN1C(=O)CSc2ccccc21)NCCCN1CCSCC1`: the GI50 in assay [1] (read-out: GI50) was 0.12 µM; in assay [1] (read-out: pGI50 (converted)) it was 0.12 µM; in assay [2], 83.3 µM; in assay [3] it was 0.63 µM; in assay [4], 0.82 µM.

Turning to `O=C(CCN1C(=O)CSc2ccccc21)N1CCC(Cc2ccccc2)CC1`, the GI50 in assay [1] (read-out: GI50) is 17.7 µM; in assay [1] (read-out: pGI50 (converted)), 17.8 µM; in assay [2], 56.8 µM; in assay [3] it was 3.8 µM; in assay [4] it was 0.1 µM.

As to `O=C(CCN1C(=O)CSc2ccccc21)N1CCN(c2ccc([N+](=O)[O-])cc2)CC1`, the GI50 in assay [1] (read-out: GI50) was 8.4 µM; in assay [1] (read-out: pGI50 (converted)) it was 8.32 µM; in assay [2], 68.1 µM; in assay [3], 5.6 µM; in assay [4] it was 0.34 µM.

Turning to `O=C(CCN1C(=O)CSc2ccccc21)N1CCN(c2ccccc2)CC1`, the GI50 is 41.9 µM in assay [1] (read-out: GI50); 41.7 µM in assay [1] (read-out: pGI50 (converted)); above 100 µM in assay [2]; 5.4 µM in assay [3]; below 0.01 µM in assay [4].

For the compound `COc1ccccc1N1CCN(C(=O)CCN2C(=O)CSc3ccccc32)CC1`, the GI50 in assay [1] (read-out: GI50) is 11.9 µM; in assay [1] (read-out: pGI50 (converted)), 12 µM; in assay [2], 34.9 µM; in assay [3] it was 6.6 µM; in assay [4] it was above 100 µM.

As for `O=C(CCN1C(=O)CSc2ccccc21)NCCCN1CCC(Cc2ccccc2)CC1`, the GI50 in assay [1] (read-out: GI50) is 56.2 µM; in assay [1] (read-out: pGI50 (converted)), 56.2 µM; in assay [2] it was above 100 µM; in assay [3], 27.6 µM; in assay [4] it was 1.5 µM.
